pKd: −log10 of the molar value. Where two headings read alike, the source gives them in different places.
Columns and labels:
JNK2, RIPK2, ERK2, ROCK2 = assay: immunoblot of IVA1/IVA2 eluates from V16742 matrix, HeLa lysate; assay type: binding, human
Procedure: The proteins retained on the beads were immunoblotted with specific antibodies for JNK2, RIPK2, ERK2 and ROCK2, the targets with affinities ranging from high to very low as identified/predicted by mass spectrometry.
Immunoblotting of affinity chromatography eluates from either IVA1 or IVA2 setting was performed with the following antibodies: Rabbit anti-casein kinase Iα, Rabbit anti-JNK2, Rabbit anti-ROCK-II (all from Cell Signaling Technology, Inc.), anti-GSK3β, anti-RIPK2, anti-GAK, anti-ERK2 (Santa Cruz)

CDK7 = target: T1, CDK7 (Homo sapiens, UniProt P50613); assay: binding to immobilized V16742 (IVA1/IVA2, HeLa lysate, MS)
T1 construct: endogenous in cells; host or cells: HeLa S3
T1 sequence (P50613 whole entry): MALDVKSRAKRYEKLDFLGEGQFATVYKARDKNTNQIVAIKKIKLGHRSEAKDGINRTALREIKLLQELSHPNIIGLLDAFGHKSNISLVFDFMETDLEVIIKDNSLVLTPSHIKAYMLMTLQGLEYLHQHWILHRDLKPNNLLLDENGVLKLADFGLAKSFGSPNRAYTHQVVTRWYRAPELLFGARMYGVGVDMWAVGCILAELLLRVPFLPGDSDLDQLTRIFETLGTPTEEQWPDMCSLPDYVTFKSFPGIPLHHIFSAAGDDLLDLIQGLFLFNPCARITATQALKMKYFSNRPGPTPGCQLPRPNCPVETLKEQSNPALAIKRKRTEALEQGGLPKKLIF

PITSLRE = assay: as above; parameters: species or system human
NUDT12 = NUDT12 (Homo sapiens, UniProt Q9BQG2)
NUDT12, sequence (Q9BQG2 whole entry): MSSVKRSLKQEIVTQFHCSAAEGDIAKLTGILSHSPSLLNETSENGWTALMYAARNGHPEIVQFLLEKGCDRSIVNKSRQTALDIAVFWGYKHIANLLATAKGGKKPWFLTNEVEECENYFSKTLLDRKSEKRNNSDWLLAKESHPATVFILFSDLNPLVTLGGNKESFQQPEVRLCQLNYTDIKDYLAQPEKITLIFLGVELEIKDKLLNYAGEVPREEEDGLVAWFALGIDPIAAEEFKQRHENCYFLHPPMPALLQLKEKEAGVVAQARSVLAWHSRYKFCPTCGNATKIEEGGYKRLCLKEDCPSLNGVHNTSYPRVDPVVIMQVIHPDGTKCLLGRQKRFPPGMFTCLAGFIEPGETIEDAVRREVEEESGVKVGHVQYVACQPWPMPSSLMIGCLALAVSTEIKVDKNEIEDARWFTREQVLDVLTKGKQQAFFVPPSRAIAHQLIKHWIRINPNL

SNRPE = SNRPE (Homo sapiens, UniProt P62304)
SNRPE, sequence (P62304 whole entry): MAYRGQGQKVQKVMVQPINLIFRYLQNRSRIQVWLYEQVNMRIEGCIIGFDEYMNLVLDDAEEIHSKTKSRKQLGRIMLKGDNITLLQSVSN

GAK = target: T2, GAK (Homo sapiens, UniProt O14976); assay: binding to immobilized V16742 (IVA1/IVA2, HeLa lysate, MS)
T2 sequence (O14976 1-1311): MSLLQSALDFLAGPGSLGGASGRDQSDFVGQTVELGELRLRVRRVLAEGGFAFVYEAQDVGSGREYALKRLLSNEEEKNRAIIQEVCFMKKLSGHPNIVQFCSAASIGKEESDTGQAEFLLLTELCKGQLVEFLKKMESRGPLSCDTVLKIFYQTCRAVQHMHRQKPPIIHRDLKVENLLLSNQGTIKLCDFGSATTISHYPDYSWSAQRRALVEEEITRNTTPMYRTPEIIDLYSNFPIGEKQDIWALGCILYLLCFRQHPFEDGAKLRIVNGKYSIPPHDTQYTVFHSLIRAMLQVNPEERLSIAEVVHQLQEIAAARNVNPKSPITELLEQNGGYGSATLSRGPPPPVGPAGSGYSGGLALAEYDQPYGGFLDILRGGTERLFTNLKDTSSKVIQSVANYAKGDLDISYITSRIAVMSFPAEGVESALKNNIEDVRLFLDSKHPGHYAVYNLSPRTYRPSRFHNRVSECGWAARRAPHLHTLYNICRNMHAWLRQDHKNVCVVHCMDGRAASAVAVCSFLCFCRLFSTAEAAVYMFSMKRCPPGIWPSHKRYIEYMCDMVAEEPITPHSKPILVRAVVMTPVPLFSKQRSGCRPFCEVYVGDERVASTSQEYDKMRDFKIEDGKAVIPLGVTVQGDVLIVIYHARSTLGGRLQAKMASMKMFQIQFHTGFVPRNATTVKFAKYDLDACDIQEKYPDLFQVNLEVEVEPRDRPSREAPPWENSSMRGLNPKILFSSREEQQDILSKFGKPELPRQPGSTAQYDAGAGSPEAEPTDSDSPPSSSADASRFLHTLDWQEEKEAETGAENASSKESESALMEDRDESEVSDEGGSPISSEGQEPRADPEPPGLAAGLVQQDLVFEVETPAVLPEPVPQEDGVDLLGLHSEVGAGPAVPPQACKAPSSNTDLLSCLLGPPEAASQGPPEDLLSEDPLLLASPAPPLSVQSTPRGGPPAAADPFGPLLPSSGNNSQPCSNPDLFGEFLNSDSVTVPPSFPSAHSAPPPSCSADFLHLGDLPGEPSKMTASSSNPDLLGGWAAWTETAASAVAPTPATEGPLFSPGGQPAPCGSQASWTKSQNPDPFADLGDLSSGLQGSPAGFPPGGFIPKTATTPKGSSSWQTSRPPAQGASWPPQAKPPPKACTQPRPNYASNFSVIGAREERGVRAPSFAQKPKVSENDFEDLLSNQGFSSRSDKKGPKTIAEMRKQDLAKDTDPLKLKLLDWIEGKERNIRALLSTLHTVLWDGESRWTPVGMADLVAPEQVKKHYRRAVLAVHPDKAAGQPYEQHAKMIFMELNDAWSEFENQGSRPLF

GSK3B = GSK3B (Homo sapiens, UniProt P49841); assay: as above
GSK3B, sequence (P49841 whole entry): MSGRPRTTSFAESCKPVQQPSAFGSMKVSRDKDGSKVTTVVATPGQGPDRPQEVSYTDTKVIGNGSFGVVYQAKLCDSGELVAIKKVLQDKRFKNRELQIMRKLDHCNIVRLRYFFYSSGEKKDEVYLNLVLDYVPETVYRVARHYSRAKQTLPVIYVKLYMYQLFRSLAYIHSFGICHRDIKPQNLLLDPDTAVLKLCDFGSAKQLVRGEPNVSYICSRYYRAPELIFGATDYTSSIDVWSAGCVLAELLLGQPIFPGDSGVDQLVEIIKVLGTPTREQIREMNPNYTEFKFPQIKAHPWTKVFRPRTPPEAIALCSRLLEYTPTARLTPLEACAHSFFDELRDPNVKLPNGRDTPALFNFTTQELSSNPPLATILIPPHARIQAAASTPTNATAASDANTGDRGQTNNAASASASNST

EphB4 = EphB4 (Homo sapiens, UniProt P54760); assay: as above
EphB4, sequence (P54760 16-987): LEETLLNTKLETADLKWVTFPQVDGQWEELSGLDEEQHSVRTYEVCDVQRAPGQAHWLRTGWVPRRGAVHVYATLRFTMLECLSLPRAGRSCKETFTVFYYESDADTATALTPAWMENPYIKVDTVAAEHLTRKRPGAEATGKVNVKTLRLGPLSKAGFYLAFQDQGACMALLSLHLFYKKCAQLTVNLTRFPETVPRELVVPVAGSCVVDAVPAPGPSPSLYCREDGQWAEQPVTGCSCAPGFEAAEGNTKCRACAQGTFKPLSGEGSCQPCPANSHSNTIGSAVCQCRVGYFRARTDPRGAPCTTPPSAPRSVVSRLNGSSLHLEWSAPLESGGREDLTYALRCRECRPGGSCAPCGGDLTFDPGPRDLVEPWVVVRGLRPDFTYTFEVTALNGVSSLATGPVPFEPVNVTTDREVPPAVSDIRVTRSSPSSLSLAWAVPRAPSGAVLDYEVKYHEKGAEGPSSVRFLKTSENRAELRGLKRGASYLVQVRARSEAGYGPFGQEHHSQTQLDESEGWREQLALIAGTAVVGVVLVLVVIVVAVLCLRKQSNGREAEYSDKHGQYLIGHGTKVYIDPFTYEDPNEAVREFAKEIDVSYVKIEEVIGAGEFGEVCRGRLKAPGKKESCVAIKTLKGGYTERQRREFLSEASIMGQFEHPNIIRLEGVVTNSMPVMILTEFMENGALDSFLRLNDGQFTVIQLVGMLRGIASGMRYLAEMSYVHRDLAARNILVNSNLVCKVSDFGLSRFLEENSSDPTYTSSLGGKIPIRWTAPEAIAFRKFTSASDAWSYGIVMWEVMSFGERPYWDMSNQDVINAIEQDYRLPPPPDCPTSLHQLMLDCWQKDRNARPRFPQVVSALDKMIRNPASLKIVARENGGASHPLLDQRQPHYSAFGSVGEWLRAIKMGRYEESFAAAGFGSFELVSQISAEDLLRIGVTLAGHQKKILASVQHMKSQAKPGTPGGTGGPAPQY

CK1e = CK1e (Homo sapiens, UniProt P49674); assay: as above
CK1e, sequence (P49674 whole entry): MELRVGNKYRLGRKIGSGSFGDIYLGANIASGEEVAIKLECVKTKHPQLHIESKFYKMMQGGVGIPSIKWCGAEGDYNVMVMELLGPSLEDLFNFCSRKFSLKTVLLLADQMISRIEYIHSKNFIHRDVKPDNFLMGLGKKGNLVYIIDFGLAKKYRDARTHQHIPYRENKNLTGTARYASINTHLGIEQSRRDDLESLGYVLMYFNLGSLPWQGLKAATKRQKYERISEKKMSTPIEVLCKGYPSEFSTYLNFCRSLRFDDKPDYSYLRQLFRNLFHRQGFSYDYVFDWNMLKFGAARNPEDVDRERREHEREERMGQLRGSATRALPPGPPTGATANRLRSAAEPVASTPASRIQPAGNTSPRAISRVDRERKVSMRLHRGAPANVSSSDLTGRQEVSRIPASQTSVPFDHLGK
Procedure: Using the three populations of SILAC-labelled cells and the three different inhibitor resins, two parallel experiments termed as IVA1 (In Vitro Association, Setting 1) and IVA2 (In Vitro Association, Setting 2) were performed. […] In IVA2, SILAC encoded HeLa cells lysates were subjected to two parallel rounds of consecutive affinity purification at the highest ligand density where the supernatant left behind after the first IVA was used for the second round of IVA. An additional incubation of Hela cell lysate with control beads devoid of immobilized inhibitor was also performed to distinguish background binders.
A common IPI identifier template was assigned to peptides based on the MASCOT html-output file for the IVA2 setting in first experiment. The proteins hits identified based on unique peptides were filtered for mass error and MASCOT score. Eventually, the hits identified in both first and second IVA2 experiments were quantified for IVA2 setting of first experiment by MSQuant. […] A next round of sorting was done to filter out protein hits that are less than 50% enriched in the IVA second round compared to IVA first round. This is because at enrichment below 50%, there could be significant errors in deducing kd values for the corresponding targets. […] The same set of targets was also quantified in IVA2 and IVA1 settings of an independent second experiment.

[1] = average of two experiments, read-out: Kd Avg

## CC(C)n1c(=O)ccc2cnc(Nc3ccc(OCCN)cc3)nc21 [V16742]
JNK2, RIPK2, ERK2, ROCK2
  interaction of kinases with V16742 matrix, immunoblot: specifically interacted with the V16742 matrix
CDK7; Experiment 1, 1.87 μM 16742
  Percent bound at various 16742 conc: 5.76%
CDK7; Experiment 1, 8.74 μM 16742
  Percent bound at various 16742 conc: 22.04%
CDK7; Experiment 1, 52 μM 16742
  Percent bound at various 16742 conc: 53.96%
CDK7; Experiment 1, read-out: Kd
  pKd: 4.40
CDK7; Experiment 2, 1.87 μM 16742
  Percent bound at various 16742 conc: 2.34%
CDK7; Experiment 2, 8.74 μM 16742
  Percent bound at various 16742 conc: 13.18%
CDK7; Experiment 2, 52 μM 16742
  Percent bound at various 16742 conc: 45.57%
CDK7; Experiment 2, read-out: Kd
  pKd: 4.21
CDK7; [1]
  pKd: 4.30
PITSLRE; Experiment 1, 1.87 μM 16742
  Percent bound at various 16742 conc: 1.13%
PITSLRE; Experiment 1, 8.74 μM 16742
  Percent bound at various 16742 conc: 12.03%
PITSLRE; Experiment 1, 52 μM 16742
  Percent bound at various 16742 conc: 49.06%
PITSLRE; Experiment 1, read-out: Kd
  pKd: 4.25
PITSLRE; Experiment 2, 1.87 μM 16742
  Percent bound at various 16742 conc: 2.00%
PITSLRE; Experiment 2, 8.74 μM 16742
  Percent bound at various 16742 conc: 4.78%
PITSLRE; Experiment 2, 52 μM 16742
  Percent bound at various 16742 conc: 46.71%
PITSLRE; Experiment 2, read-out: Kd
  pKd: 4.18
PITSLRE; [1]
  pKd: 4.21

## COc1cc2ncnc(Nc3ccc(F)c(Cl)c3)c2cc1OCCCN1CCOCC1 [gefitinib]
NUDT12
  rAVERAGE (10 nM/0 nM Gef.): 1.04
  rAVERAGE (100 nM/0 nM Gef.): 0.93
  rAVERAGE (1000 nM/0 nM Gef.): 0.92
  rAVERAGE (10000 nM/0 nM Gef.): 0.09
SNRPE
  rAVERAGE (10 nM/0 nM Gef.): 0.70
  rAVERAGE (100 nM/0 nM Gef.): 1.11
  rAVERAGE (1000 nM/0 nM Gef.): 0.74
  rAVERAGE (10000 nM/0 nM Gef.): 0.93

## CC(C)n1c(=O)ccc2cnc(Nc3ccc(OCCN)cc3)nc21 [compound 16742]
GAK; EXPERIMENT 1
  Percent bound at 1.87 μM 16742 conc: 8.35%
  Percent bound at 8.74 μM 16742 conc: 29.77%
  Percent bound at 52 μM 16742 conc: 69.07%
GAK; EXPERIMENT 1, read-out: Kd
  pKd: 4.66
GAK; EXPERIMENT 2
  Percent bound at 1.87 μM 16742 conc: 6.15%
  Percent bound at 8.74 μM 16742 conc: 27.34%
  Percent bound at 52 μM 16742 conc: 63.94%
GAK; EXPERIMENT 2, read-out: Kd
  pKd: 4.57
GAK; read-out: Kd Avg
  pKd: 4.61
GSK3B; EXPERIMENT 1
  Percent bound at 1.87 μM 16742 conc: 12.33%
  Percent bound at 8.74 μM 16742 conc: 51.81%
  Percent bound at 52 μM 16742 conc: 91.30%
GSK3B; EXPERIMENT 1, read-out: Kd
  pKd: 5.07
GSK3B; EXPERIMENT 2
  Percent bound at 1.87 μM 16742 conc: 8.04%
  Percent bound at 8.74 μM 16742 conc: 41.97%
  Percent bound at 52 μM 16742 conc: 88.20%
GSK3B; EXPERIMENT 2, read-out: Kd
  pKd: 4.94
GSK3B; read-out: Kd Avg
  pKd: 5.00
EphB4; EXPERIMENT 1
  Percent bound at 1.87 μM 16742 conc: 3.95%
  Percent bound at 8.74 μM 16742 conc: 18.14%
  Percent bound at 52 μM 16742 conc: 61.05%
EphB4; EXPERIMENT 1, read-out: Kd
  pKd: 4.45
EphB4; EXPERIMENT 2
  Percent bound at 1.87 μM 16742 conc: 2.71%
  Percent bound at 8.74 μM 16742 conc: 12.85%
  Percent bound at 52 μM 16742 conc: 50.80%
EphB4; EXPERIMENT 2, read-out: Kd
  pKd: 4.28
EphB4; read-out: Kd Avg
  pKd: 4.36
CK1e
  pKd: 4.89
CK1e; CK1e, EXPERIMENT 1
  Percent bound at 1.87 μM 16742 conc: 6.91%
  Percent bound at 8.74 μM 16742 conc: 34.02%
  Percent bound at 52 μM 16742 conc: 79.64%
CK1e; CK1e, EXPERIMENT 2
  Percent bound at 1.87 μM 16742 conc: 7.41%
  Percent bound at 8.74 μM 16742 conc: 37.16%
  Percent bound at 52 μM 16742 conc: 88.21%
CK1e; Kd, CK1e
  pKd: 4.84
CK1e; Kd, CK1e, EXPERIMENT 1
  pKd: 4.79

— patent US8959984B2, “Proteome-wide quantification of small molecule binding to cellular target proteins” (priority 2007, dated 2015)
